Measurements from PubChem BioAssay (NCI).
Where “and” joins values, the source holds several entries; their conditions need not be identical. Equal entries are not always repeated.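 All cell lines were grown in 96-well plates and treated with compound for 48 hours. GI50 is the concentration that inhibits growth by half. Definition used: TGI = concentration required for complete inhibition of growth.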

Assays:
Experiment in all cases: DTP human tumour cell line panel, 48 h
NCI-H522 lung = system: NCI-H522 lung
OVCAR-5 ovarian = system: OVCAR-5 ovarian
OVCAR-3 ovarian = system: OVCAR-3 ovarian
IGROV1 ovarian = system: IGROV1 ovarian
KM12 colon = system: KM12 colon
MDA-MB-435 = system: MDA-MB-435
SR leukemia = system: SR leukemia
786-0 renal = system: 786-0 renal
HS 578T breast = system: HS 578T breast
SF-295 CNS = system: SF-295 CNS

CC(C)OC(=O)c1cc(NC(=S)OC(C)C)ccc1Cl
TGI (NCI-H522 lung): 26.6 µM
TGI (OVCAR-5 ovarian): > 63.1 µM
TGI (OVCAR-3 ovarian): 48.3 µM
TGI (IGROV1 ovarian): > 56.2 µM
TGI (KM12 colon): 44.3 µM
TGI (MDA-MB-435): 31.4 µM
TGI (SR leukemia): > 100 µM
TGI (786-0 renal): > 55.9 µM
TGI (HS 578T breast): > 79.8 µM
TGI (SF-295 CNS): 46.9 µM

CC(C)(C)c1cnc(CSc2cnc(NC(=O)C3CCNCC3)s2)o1
GI50 (NCI-H522 lung): 0.189 µM and 0.175 µM
TGI (NCI-H522 lung): 0.494 µM and 0.565 µM
GI50 (OVCAR-5 ovarian): 0.241 µM and 0.124 µM
TGI (OVCAR-5 ovarian): > 100 µM
GI50 (OVCAR-3 ovarian): 0.223 µM and 0.181 µM
TGI (OVCAR-3 ovarian): 3.61 µM and > 2.95 µM
GI50 (IGROV1 ovarian): 0.204 µM
TGI (IGROV1 ovarian): 4.28 µM and > 10 µM
GI50 (KM12 colon): 0.14 µM and 0.166 µM
TGI (KM12 colon): 5.35 µM and > 10 µM
GI50 (MDA-MB-435): 0.189 µM and 0.232 µM
TGI (MDA-MB-435): 0.905 µM and 1.07 µM
GI50 (SR leukemia): 0.0346 µM and 0.0265 µM
TGI (SR leukemia): 1.6 µM
GI50 (786-0 renal): 0.47 µM and 0.698 µM
TGI (786-0 renal): > 47.7 µM
GI50 (HS 578T breast): 0.334 µM and 0.226 µM
TGI (HS 578T breast): > 2.64 µM
GI50 (SF-295 CNS): 0.185 µM and 0.602 µM
TGI (SF-295 CNS): > 10 µM

Cc1nc(Nc2ccc(Cl)c(Cl)c2)sc1C(/C=C/c1ccc2c(c1)OCO2)=N/Nc1ccc([N+](=O)[O-])cc1[N+](=O)[O-]
TGI (NCI-H522 lung): > 100 µM
TGI (OVCAR-5 ovarian): > 100 µM
TGI (OVCAR-3 ovarian): > 100 µM
TGI (IGROV1 ovarian): > 100 µM
TGI (KM12 colon): > 100 µM
TGI (MDA-MB-435): > 100 µM
TGI (SR leukemia): > 100 µM
TGI (786-0 renal): > 100 µM
TGI (HS 578T breast): > 100 µM
TGI (SF-295 CNS): > 100 µM

COc1ccccc1CNCCCN1C(=O)c2ccc3c4c(ccc(c24)C1=O)C(=O)N(CCCNCCCCN)C3=O
GI50 (NCI-H522 lung): 0.182 µM
TGI (NCI-H522 lung): 0.367 µM
GI50 (OVCAR-5 ovarian): 1.06 µM
TGI (OVCAR-5 ovarian): 7.97 µM
GI50 (OVCAR-3 ovarian): 0.304 µM
TGI (OVCAR-3 ovarian): 0.81 µM
GI50 (IGROV1 ovarian): 0.464 µM
TGI (IGROV1 ovarian): 15.9 µM
GI50 (KM12 colon): 0.332 µM
TGI (KM12 colon): 1.29 µM
GI50 (MDA-MB-435): 0.184 µM
TGI (MDA-MB-435): 0.397 µM
GI50 (SR leukemia): 0.0928 µM
TGI (SR leukemia): 0.82 µM
GI50 (786-0 renal): 0.616 µM
TGI (786-0 renal): 3.67 µM
GI50 (HS 578T breast): 1.14 µM
TGI (HS 578T breast): 5.91 µM
GI50 (SF-295 CNS): 0.678 µM
TGI (SF-295 CNS): 2.79 µM

c1ccc(-c2nc3ccccc3[nH]2)c(OCCCCCOc2ccccc2-c2nc3ccccc3[nH]2)c1
GI50 (NCI-H522 lung): 5.46 µM
TGI (NCI-H522 lung): 39.1 µM
GI50 (OVCAR-5 ovarian): 20.2 µM
TGI (OVCAR-5 ovarian): 62.6 µM
GI50 (OVCAR-3 ovarian): 12 µM
TGI (OVCAR-3 ovarian): 24.7 µM
GI50 (IGROV1 ovarian): 18.1 µM
TGI (IGROV1 ovarian): 47.1 µM
GI50 (KM12 colon): 15.8 µM
TGI (KM12 colon): 72.4 µM
GI50 (MDA-MB-435): 11.3 µM
TGI (MDA-MB-435): 29.3 µM
GI50 (SR leukemia): 2.27 µM
TGI (SR leukemia): 13.1 µM
GI50 (786-0 renal): 15.9 µM
TGI (786-0 renal): 35.3 µM
GI50 (HS 578T breast): 15.4 µM
TGI (HS 578T breast): 41 µM
GI50 (SF-295 CNS): 15.3 µM
TGI (SF-295 CNS): 41.2 µM

COc1cc(OC)c(OC)cc1/C=C\c1ccnc2ccccc12
TGI (NCI-H522 lung): 4.25 µM
TGI (OVCAR-5 ovarian): > 100 µM
TGI (OVCAR-3 ovarian): 7.44 µM
TGI (IGROV1 ovarian): > 72.9 µM
TGI (KM12 colon): > 67.5 µM
TGI (MDA-MB-435): 0.534 µM
TGI (SR leukemia): > 100 µM
TGI (786-0 renal): 61.6 µM
TGI (HS 578T breast): 1.15 µM
TGI (SF-295 CNS): 3.55 µM

COc1cc2c(cc1OC)C(Sc1ccc(Cl)cc1)c1c(nc(N)c(C#N)c1N)O2 (centres undefined)
GI50 (NCI-H522 lung): 1.29 µM
TGI (NCI-H522 lung): 2.64 µM
GI50 (OVCAR-5 ovarian): 1.89 µM
TGI (OVCAR-5 ovarian): 3.88 µM
GI50 (OVCAR-3 ovarian): 1.27 µM
TGI (OVCAR-3 ovarian): 2.56 µM
GI50 (IGROV1 ovarian): 1.07 µM
TGI (IGROV1 ovarian): 2.88 µM
GI50 (KM12 colon): 1.75 µM
TGI (KM12 colon): 3.35 µM
GI50 (MDA-MB-435): 1.42 µM
TGI (MDA-MB-435): 2.85 µM
GI50 (SR leukemia): 0.329 µM
TGI (SR leukemia): 1.66 µM
GI50 (786-0 renal): 1.37 µM
TGI (786-0 renal): 2.7 µM
GI50 (HS 578T breast): 1.98 µM
TGI (HS 578T breast): 6.43 µM
GI50 (SF-295 CNS): 1.83 µM
TGI (SF-295 CNS): 3.31 µM

COc1ccc(-c2nc3sccn3c2/C=C/C(=O)c2cc(OC)c(OC)c(OC)c2)cc1
GI50 (NCI-H522 lung): 4.16 µM
TGI (NCI-H522 lung): > 22.2 µM
GI50 (OVCAR-5 ovarian): 3.68 µM
TGI (OVCAR-5 ovarian): > 23.9 µM
GI50 (OVCAR-3 ovarian): 2.34 µM
TGI (OVCAR-3 ovarian): 7.37 µM
GI50 (IGROV1 ovarian): 1.24 µM
GI50 (KM12 colon): 2.56 µM
TGI (KM12 colon): 7.75 µM
GI50 (MDA-MB-435): 2.85 µM
TGI (MDA-MB-435): > 100 µM
GI50 (SR leukemia): 2.41 µM
TGI (SR leukemia): > 28.2 µM
GI50 (786-0 renal): 3.7 µM
TGI (786-0 renal): > 100 µM
GI50 (HS 578T breast): 2.18 µM
TGI (HS 578T breast): > 24.1 µM
GI50 (SF-295 CNS): 2.91 µM
TGI (SF-295 CNS): 18.3 µM

C=C1CCC2C(C)(CO)C(O)CCC2(C)C1C/C=C1\C(=O)OCC1O (centres undefined)
TGI (NCI-H522 lung): 28.4 µM
TGI (OVCAR-5 ovarian): 31.1 µM
TGI (OVCAR-3 ovarian): 21.2 µM
TGI (IGROV1 ovarian): 57.4 µM
TGI (KM12 colon): 27.2 µM
TGI (MDA-MB-435): 22.9 µM
TGI (SR leukemia): 42.5 µM
TGI (786-0 renal): 18.1 µM
TGI (HS 578T breast): > 100 µM
TGI (SF-295 CNS): 52.5 µM

O=C(/C=C/c1ccccn1)c1ccccc1
GI50 (NCI-H522 lung): 1.65 µM
TGI (NCI-H522 lung): 3.1 µM
GI50 (OVCAR-5 ovarian): 6.52 µM
TGI (OVCAR-5 ovarian): 24.1 µM
GI50 (OVCAR-3 ovarian): 9.5 µM
TGI (OVCAR-3 ovarian): 21.4 µM
GI50 (IGROV1 ovarian): 3.84 µM
TGI (IGROV1 ovarian): 85.3 µM
GI50 (KM12 colon): 4.13 µM
TGI (KM12 colon): 15.5 µM
GI50 (MDA-MB-435): 7.85 µM
TGI (MDA-MB-435): 24.9 µM
GI50 (SR leukemia): 1.96 µM
TGI (SR leukemia): 14.1 µM
GI50 (786-0 renal): 2.84 µM
TGI (786-0 renal): 10.7 µM
GI50 (HS 578T breast): 12.5 µM
TGI (HS 578T breast): 39.4 µM
GI50 (SF-295 CNS): 15.7 µM
TGI (SF-295 CNS): 32.2 µM

COc1cc(C(=O)/C=C/c2c(C)n([O-])c3ccc(Cl)cc3[n+]2=O)cc(OC)c1OC
GI50 (NCI-H522 lung): 1.12 µM
TGI (NCI-H522 lung): 2.8 µM
GI50 (OVCAR-5 ovarian): 27 µM
TGI (OVCAR-5 ovarian): > 100 µM
GI50 (OVCAR-3 ovarian): 1.76 µM
TGI (OVCAR-3 ovarian): 7.98 µM
GI50 (IGROV1 ovarian): 9.07 µM
TGI (IGROV1 ovarian): > 100 µM
GI50 (KM12 colon): 23.2 µM
TGI (KM12 colon): > 100 µM
GI50 (MDA-MB-435): 3.4 µM
TGI (MDA-MB-435): > 100 µM
GI50 (SR leukemia): 1.86 µM
TGI (SR leukemia): 5.65 µM
GI50 (786-0 renal): 13.2 µM
TGI (786-0 renal): 92.4 µM
GI50 (HS 578T breast): 1.75 µM
TGI (HS 578T breast): 8.97 µM
GI50 (SF-295 CNS): 99.4 µM
TGI (SF-295 CNS): > 100 µM

Cc1cc(=O)[nH]c2c1C(=O)c1c(C)cc(=O)n(C)c1C2=O
TGI (NCI-H522 lung): 0.187 µM
TGI (OVCAR-5 ovarian): 0.31 µM
TGI (OVCAR-3 ovarian): 0.151 µM
TGI (IGROV1 ovarian): 0.437 µM
TGI (KM12 colon): 0.192 µM
TGI (MDA-MB-435): 0.0275 µM
TGI (SR leukemia): > 10 µM
TGI (786-0 renal): 0.182 µM
TGI (HS 578T breast): 0.154 µM
TGI (SF-295 CNS): 0.31 µM

O=[N+]([O-])/C(=C/C=C/c1ccccc1)c1ccccc1
GI50 (NCI-H522 lung): 1.62 µM
TGI (NCI-H522 lung): 4.08 µM
GI50 (OVCAR-5 ovarian): 2.38 µM
TGI (OVCAR-5 ovarian): 6.06 µM
GI50 (OVCAR-3 ovarian): 1.85 µM
TGI (OVCAR-3 ovarian): 3.29 µM
GI50 (IGROV1 ovarian): 1.92 µM
TGI (IGROV1 ovarian): 4.54 µM
GI50 (KM12 colon): 2.04 µM
TGI (KM12 colon): 4.29 µM
GI50 (MDA-MB-435): 2.12 µM
TGI (MDA-MB-435): 4.92 µM
GI50 (SR leukemia): 1.01 µM
TGI (SR leukemia): 4.05 µM
GI50 (786-0 renal): 1.81 µM
TGI (786-0 renal): 3.4 µM
GI50 (HS 578T breast): 2.86 µM
TGI (HS 578T breast): 8.41 µM
GI50 (SF-295 CNS): 2.56 µM
TGI (SF-295 CNS): 9.08 µM

OCCN1CCCN(CCCN2c3ccccc3Sc3ccc(C(F)(F)F)cc32)CC1
GI50 (NCI-H522 lung): 3.23 µM
TGI (NCI-H522 lung): 14 µM
GI50 (OVCAR-5 ovarian): 3.21 µM
TGI (OVCAR-5 ovarian): 15 µM
GI50 (OVCAR-3 ovarian): 3.84 µM
TGI (OVCAR-3 ovarian): 13.9 µM
GI50 (IGROV1 ovarian): 2.68 µM
TGI (IGROV1 ovarian): 7.22 µM
GI50 (KM12 colon): 2.27 µM
TGI (KM12 colon): 4.69 µM
GI50 (MDA-MB-435): 1.67 µM
TGI (MDA-MB-435): 3.33 µM
GI50 (SR leukemia): 2.18 µM
TGI (SR leukemia): 4.75 µM
GI50 (786-0 renal): 2.21 µM
TGI (786-0 renal): 5.25 µM
GI50 (HS 578T breast): 2.04 µM
TGI (HS 578T breast): 5.89 µM
GI50 (SF-295 CNS): 1.76 µM
TGI (SF-295 CNS): 3.74 µM
